Assay results published in US20050148034A1, “Methods for identification of modulators of angiogenesis, compounds discovered thereby, and methods of treatment using the compounds” (priority 2002, published 2005).

System: embryonic-like stem cells derived from placenta
Assay: Marker expression of cultured embryonic-like stem cells (staining score, Table 2)
Format: cell-based, human
Design: key to SMC-specific Myosin HC / GFAP / CD34+ / CD45+: −: no staining; +/−: <20% staining; +: 20-50% staining; ++: 50-75% staining; +++: >75% staining
Conditions: for CD34+ / CD45+ / GFAP / Nestin / SMC-specific Myosin HC: placental conditioned media, fourteen days of culture
Method: The following experiments evaluated the effects of Thalomid™, Actimid™ and Revimid™ on the morphological differentiation of embryonic-like stem cells derived from placenta. The morphological differentiation of cultured embryonic-like stem cells was evaluated after fourteen days of culture in the presence of placental conditioned medium and with DMSO (control), EGCF, Thalomid™, Actimid™ or Revimid™.
Embryonic-like stem cells were isolated from placenta as described above in Section 5.4. The embryonic-like stem cells were cultured using the culture conditions described above.
The cells were scored for the expression of CD34 (a marker of early hematopoietic progenitor cells; also an endothelial cell marker), CD45 (a marker of all hematopoietic cells except erythrocytes), CD105 (a marker of proliferating endothelial cells), smooth muscle cell (SMC)-specific myosin heavy chain, nestin ([…]), and glial fibrillary acidic protein (GFAP). Ratios of CD34 cells/TNC (Total Number of Cells), CD45 cells/TNC and CD105 cells/TNC were also determined.
In Table 2, the scoring was as follows: • −: no staining; +/−: <20% staining+: 20-50% staining; ++: 50-75% staining; +++: >75% staining.

## O=C1CCC(N2C(=O)c3ccccc3C2=O)C(=O)N1 (stereo not drawn) [Thalomid, thalidomide, reference compound]
10 μg/mL
  CD34+: +/− (<20% staining)
  CD45+: + (20-50% staining)
  GFAP: −
  Nestin: + (20-50% staining)
  SMC-specific Myosin HC: −
100 μg/mL
  CD34+: −
  CD45+: + (20-50% staining)
  GFAP: + (20-50% staining)
  Nestin: + (20-50% staining)
  SMC-specific Myosin HC: −
Summary of Table 2
  numbers of cells expressing CD34, CD45 and smooth muscle cell (SMC)-specific myosin heavy chain: decreased
  numbers of cells expressing nestin and glial fibrillary acidic protein (GFAP): increased
